Assay results from ChEMBL document CHEMBL1201862, “PubChem BioAssay data set” (2004).
Activity calls are given as the source filed them.

Columns and labels:
[1] = target: UDP-galactopyranose mutase (Mycobacterium tuberculosis, UniProt P9WIQ1); assay: Inhibitors of Mycobacterium tuberculosis UDP-galactopyranose mutase (UGM) enzyme Measured in Biochemical System Using Plate Reader - 2105-02_Inhibitor_Dose_CherryPick_Activity. [Related pubchem assays (depositor defined):AID504439]
[2] = HEp-2 cell cytotoxicity, dose response, cytotoxicity control for RSV inhibitor project, HTS (AID 2410); type: functional; details: human respiratory syncytial virus
[3] = Luminescence Cell-Based Dose Confirmation HTS to Identify Activators of 5'UTR Stem-Loop Driven Alpha-Synuclein mRNA Translation in H4 Neuroglioblastoma Cells. [Related pubchem assays: 1829 (Project Summary), 1814 (Primary HTS)]; type: functional
[4] = Luminescence Cell-Based Dose Response HTS to Identify Activators of Luciferase Translation or Activity in H4 […] Cells. [Related pubchem assays: 1829 (Project Summary), 1814 (Primary HTS)]; type: functional
[5] = tested on: H4; assay: Luminescence Cell-Based Dose Response HTS to Identify Activators of 5'UTR Stem-Loop Driven Prion Protein mRNA Translation in H4 Neuroglioblastoma Cells. [Related pubchem assays: 1829 (Project Summary), 1814 (Primary HTS)]; type: functional; details: Homo sapiens
[6] = microbe, parasite or virus in culture; type: functional; details: Mycobacterium tuberculosis
[7] = target: T1, Exodeoxyribonuclease V (Escherichia coli (strain K12), UniProt P04993+P07648+P08394); assay: E. coli RecBCD inhibitors, dose response, counter-screen for AddAB inhibitor project, absorbance, V66 E. coli, mutant T4 phage (AID 492957); type: functional, cell-based, Escherichia coli str. K-12 substr. MG1655
T1 sequence (P04993 whole entry): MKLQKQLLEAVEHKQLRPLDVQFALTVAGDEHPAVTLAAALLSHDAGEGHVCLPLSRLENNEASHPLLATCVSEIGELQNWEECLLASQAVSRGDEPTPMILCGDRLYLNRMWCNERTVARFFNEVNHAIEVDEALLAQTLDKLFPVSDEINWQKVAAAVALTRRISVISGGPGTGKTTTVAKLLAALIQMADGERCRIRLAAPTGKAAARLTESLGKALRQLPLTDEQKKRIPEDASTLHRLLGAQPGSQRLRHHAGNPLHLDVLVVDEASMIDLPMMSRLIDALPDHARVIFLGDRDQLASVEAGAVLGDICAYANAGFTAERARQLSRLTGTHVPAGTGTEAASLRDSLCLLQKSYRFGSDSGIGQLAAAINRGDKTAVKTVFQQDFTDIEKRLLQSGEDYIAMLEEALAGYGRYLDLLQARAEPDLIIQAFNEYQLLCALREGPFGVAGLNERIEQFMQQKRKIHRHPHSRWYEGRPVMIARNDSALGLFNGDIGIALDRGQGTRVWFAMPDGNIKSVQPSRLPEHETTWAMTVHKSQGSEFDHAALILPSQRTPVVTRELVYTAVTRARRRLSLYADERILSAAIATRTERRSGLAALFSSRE
T1 sequence (P07648 whole entry): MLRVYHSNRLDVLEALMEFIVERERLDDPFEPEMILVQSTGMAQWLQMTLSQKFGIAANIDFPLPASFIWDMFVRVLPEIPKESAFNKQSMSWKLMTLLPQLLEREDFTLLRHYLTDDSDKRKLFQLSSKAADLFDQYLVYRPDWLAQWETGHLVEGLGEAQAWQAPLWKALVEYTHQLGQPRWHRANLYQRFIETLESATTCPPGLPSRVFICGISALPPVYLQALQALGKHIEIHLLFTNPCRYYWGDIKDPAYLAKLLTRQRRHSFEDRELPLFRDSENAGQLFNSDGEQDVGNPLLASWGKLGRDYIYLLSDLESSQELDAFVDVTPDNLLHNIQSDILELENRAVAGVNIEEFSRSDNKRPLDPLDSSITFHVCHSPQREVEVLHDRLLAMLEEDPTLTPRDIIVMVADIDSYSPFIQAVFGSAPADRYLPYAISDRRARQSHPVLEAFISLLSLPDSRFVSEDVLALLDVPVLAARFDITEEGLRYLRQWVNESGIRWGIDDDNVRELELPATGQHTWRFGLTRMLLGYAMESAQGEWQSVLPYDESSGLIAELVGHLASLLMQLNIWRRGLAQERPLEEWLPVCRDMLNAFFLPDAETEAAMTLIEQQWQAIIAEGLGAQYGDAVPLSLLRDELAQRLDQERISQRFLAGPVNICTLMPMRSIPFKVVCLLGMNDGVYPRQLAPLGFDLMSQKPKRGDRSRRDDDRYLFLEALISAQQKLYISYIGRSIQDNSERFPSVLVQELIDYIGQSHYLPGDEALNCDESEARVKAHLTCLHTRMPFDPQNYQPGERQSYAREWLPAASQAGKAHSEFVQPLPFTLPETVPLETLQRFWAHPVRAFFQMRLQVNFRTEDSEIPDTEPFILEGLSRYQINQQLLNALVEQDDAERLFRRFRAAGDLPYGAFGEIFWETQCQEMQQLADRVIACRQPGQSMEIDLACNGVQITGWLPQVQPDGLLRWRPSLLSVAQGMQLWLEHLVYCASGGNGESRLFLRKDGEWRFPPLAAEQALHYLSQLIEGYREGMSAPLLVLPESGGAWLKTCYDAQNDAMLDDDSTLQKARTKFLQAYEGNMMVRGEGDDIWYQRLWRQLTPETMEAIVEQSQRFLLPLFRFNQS
T1 sequence (P08394 whole entry): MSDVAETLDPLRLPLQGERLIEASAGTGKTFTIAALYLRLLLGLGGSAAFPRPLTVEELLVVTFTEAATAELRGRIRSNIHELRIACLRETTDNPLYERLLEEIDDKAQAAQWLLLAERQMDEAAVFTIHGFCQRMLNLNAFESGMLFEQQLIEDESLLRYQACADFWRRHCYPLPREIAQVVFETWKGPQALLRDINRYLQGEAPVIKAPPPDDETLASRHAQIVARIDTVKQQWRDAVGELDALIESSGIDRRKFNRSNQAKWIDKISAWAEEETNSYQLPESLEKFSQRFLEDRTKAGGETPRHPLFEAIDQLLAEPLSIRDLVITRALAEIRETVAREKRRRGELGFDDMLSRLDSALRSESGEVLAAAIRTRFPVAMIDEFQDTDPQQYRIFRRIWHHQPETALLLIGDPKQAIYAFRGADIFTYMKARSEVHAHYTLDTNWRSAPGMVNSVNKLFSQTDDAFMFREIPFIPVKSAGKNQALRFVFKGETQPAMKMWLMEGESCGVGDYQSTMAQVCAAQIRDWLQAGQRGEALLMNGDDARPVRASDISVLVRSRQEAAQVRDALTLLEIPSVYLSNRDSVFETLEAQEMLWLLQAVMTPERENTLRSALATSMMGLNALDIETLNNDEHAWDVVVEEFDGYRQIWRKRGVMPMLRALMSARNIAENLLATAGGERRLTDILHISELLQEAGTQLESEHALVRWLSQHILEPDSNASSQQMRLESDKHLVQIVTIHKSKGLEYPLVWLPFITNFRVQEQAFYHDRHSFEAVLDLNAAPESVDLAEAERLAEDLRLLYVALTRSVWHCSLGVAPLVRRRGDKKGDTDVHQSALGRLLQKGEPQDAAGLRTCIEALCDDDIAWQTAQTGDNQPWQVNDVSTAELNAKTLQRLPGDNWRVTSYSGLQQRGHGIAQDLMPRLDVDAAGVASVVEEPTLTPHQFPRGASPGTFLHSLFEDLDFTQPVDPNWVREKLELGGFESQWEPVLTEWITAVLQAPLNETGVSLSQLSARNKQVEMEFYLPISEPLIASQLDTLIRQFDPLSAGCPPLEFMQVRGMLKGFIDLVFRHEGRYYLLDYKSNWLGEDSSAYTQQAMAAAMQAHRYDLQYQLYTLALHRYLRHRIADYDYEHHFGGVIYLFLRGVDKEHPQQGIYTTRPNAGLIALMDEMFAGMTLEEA

[8] = Counterscreen for AddAB inhibitors: absorbance-based bacterial cell-based high throughput dose response assay for inhibitors of bacterial viability. [Related pubchem assays (depositor defined):AID435030, AID449728, AID449731, AID488942, AID488955, AID488956]; type: functional
[9] = tested on: HEK293; assay: cells; type: functional, cell-based; details: Homo sapiens
[10] = target: T2, Nuclear receptor subfamily 0 group B member 1 (Homo sapiens, UniProt P51843); assay: Luminescence-based cell-based high throughput dose response assay for inhibitors of the orphan nuclear receptor subfamily 0, group B, member 1 (DAX1; NR0B1). [Related pubchem assays (depositor defined):AID504766, AID504790]; type: functional
T2 sequence (P51843 whole entry): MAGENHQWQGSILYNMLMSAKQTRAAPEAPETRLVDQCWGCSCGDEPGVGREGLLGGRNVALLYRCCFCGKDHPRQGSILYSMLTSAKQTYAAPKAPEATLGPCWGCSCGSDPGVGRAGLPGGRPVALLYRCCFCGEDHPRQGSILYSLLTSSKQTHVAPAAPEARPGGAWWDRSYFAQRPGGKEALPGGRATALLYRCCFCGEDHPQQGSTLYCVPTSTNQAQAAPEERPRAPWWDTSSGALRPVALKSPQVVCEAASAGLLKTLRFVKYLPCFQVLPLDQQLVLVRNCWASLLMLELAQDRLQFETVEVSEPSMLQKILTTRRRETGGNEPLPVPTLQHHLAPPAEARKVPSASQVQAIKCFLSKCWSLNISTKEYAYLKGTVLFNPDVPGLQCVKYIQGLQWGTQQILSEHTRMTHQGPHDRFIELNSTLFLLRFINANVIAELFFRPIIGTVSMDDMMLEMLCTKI

[11] = target: Cytochrome P450 2C19 (Homo sapiens, UniProt P33261); assay: Cytochrome panel assay with activity outcomes. Panel member name: p450-cyp2c19 Compounds with AC50 equal or less than 10 uM are considered active; type: functional; details: read-out: AC50
[12] = tested on: CHO; assay: cytotoxicity in TLR9-MyD88 CHO cells, dose response, cytotoxicity control for TLR9-MyD88 binding inhibitor project, cell-based, luminescence (AID 588339); type: functional, hamster; details: Cricetulus griseus;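 note: CHO cells stably coexpressing TLR9 and MyD88 fusions from primary screen; compound exposure lasted 48 hours before viability readout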
[13] = target: Beta Lactamase (Pseudomonas aeruginosa, UniProt Q932Y6); assay: beta-lactamase reporter inhibitor potency, dose response, artefact control for TLR9-MyD88 binding inhibitor project, BLA reporter cells, FRET fluorescence (AID 588341); type: cell-based;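 note: cell based assay in CHO-K1 cells stably expressing beta-lactamase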
[14] = target: Cytochrome P450 3A4 (Homo sapiens, UniProt P08684);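 note: CYP3A4 tested as one member of a cytochrome P450 panel screen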
[15] = target: Glucose-6-phosphate 1-dehydrogenase (Homo sapiens, UniProt P11413); assay: human G6PD enzyme inhibitors, dose response, selectivity assay for P. falciparum G6PD inhibitor project, biochemical, fluorescence (AID 504792); type: functional
[16] = target: Genome polyprotein (dengue virus type 2, UniProt P29990); assay: Dengue-2 NS5 methyltransferase inhibitors, primary screen, biochemical, confirmation dose response (AID 588689); type: functional
[17] = THP-1 cell cytotoxicity, dose response, cytotoxicity control for non-replicating M. tuberculosis project (AID 489025); type: functional
[18] = target: T3, Microphthalmia-associated transcription factor (Homo sapiens, UniProt O75030); assay: TRPM1 promoter luciferase signal decrease, dose response, MITF inhibitor project, cell-based, SK-MEL-5, cherry-picked, set 3 (AID 493073); type: functional
T3 sequence (O75030 whole entry): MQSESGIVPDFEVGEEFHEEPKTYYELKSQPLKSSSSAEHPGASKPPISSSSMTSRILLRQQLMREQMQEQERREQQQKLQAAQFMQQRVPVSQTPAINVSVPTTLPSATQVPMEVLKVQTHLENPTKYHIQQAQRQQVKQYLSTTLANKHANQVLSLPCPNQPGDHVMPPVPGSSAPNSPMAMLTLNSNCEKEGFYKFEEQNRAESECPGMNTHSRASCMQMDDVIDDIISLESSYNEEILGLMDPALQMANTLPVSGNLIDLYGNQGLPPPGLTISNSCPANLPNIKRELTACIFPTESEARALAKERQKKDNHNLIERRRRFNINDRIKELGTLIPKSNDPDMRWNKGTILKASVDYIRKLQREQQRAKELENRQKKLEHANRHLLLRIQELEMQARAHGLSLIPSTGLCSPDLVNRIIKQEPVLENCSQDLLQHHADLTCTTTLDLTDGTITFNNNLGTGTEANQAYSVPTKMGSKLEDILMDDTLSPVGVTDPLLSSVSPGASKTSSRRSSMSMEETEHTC

[19] = cells; type: functional

UDP-galactopyranose mutase, sequence (P9WIQ1 whole entry): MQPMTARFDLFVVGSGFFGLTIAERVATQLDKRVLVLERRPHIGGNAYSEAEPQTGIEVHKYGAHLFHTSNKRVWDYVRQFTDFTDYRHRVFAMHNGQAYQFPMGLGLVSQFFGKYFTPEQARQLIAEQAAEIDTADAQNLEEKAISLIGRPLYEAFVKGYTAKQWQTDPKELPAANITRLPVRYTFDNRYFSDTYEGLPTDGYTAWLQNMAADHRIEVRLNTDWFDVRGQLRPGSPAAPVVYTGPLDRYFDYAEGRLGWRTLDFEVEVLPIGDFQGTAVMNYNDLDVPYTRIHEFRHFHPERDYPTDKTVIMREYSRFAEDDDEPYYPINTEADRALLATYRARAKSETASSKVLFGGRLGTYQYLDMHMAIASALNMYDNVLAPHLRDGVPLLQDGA
Glucose-6-phosphate 1-dehydrogenase, sequence (P11413 whole entry): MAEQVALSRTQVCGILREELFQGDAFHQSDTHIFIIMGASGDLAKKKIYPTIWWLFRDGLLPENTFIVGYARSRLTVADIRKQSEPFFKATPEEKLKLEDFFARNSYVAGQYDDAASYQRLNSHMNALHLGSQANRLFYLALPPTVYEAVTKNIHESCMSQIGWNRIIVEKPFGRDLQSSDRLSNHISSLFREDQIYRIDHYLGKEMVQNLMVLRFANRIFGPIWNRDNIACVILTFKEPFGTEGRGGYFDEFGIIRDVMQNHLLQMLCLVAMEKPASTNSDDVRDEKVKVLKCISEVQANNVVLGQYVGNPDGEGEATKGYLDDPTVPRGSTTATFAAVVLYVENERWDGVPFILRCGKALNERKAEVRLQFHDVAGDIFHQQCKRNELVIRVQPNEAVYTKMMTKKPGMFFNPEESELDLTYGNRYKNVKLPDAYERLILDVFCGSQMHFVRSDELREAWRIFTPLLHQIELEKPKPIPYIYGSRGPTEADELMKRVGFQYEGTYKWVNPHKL
Cytochrome P450 2C19, sequence (P33261 whole entry, the tested form may be a part): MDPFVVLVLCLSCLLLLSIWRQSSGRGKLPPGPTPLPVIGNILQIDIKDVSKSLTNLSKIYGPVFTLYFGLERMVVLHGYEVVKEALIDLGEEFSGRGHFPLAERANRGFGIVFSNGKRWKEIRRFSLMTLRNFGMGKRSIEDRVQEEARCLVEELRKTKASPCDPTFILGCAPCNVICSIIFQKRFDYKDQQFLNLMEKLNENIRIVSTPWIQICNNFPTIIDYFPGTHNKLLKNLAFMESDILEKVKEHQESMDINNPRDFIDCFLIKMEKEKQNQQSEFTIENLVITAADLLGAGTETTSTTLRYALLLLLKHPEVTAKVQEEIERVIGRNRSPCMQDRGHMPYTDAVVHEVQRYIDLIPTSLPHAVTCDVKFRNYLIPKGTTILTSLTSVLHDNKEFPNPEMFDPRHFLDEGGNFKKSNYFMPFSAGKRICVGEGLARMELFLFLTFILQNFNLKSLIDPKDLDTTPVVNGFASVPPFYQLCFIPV
Cytochrome P450 3A4, sequence (P08684 whole entry): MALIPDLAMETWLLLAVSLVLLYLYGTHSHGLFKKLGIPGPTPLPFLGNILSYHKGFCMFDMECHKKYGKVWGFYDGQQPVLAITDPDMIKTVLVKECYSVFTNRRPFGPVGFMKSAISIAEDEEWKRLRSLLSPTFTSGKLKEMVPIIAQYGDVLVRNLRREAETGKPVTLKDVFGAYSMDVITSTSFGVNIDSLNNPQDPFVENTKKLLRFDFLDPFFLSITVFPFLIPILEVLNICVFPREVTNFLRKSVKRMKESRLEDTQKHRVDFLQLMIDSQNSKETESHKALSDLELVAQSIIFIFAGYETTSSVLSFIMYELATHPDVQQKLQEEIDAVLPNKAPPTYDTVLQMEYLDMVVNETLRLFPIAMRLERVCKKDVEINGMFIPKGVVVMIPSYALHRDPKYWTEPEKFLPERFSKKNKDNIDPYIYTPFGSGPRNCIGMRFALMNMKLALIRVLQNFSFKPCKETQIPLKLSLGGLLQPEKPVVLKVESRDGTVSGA
Beta Lactamase, sequence (Q932Y6 whole entry): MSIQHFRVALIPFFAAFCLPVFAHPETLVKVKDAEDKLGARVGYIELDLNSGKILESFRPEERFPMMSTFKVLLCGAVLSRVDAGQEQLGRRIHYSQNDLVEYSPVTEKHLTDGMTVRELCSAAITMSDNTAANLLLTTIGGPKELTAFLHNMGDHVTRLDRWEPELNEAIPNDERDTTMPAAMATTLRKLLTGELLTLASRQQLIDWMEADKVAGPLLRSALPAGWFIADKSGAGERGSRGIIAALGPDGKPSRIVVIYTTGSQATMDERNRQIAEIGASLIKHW
Genome polyprotein, sequence (P29990 2492-3391 limits assumed): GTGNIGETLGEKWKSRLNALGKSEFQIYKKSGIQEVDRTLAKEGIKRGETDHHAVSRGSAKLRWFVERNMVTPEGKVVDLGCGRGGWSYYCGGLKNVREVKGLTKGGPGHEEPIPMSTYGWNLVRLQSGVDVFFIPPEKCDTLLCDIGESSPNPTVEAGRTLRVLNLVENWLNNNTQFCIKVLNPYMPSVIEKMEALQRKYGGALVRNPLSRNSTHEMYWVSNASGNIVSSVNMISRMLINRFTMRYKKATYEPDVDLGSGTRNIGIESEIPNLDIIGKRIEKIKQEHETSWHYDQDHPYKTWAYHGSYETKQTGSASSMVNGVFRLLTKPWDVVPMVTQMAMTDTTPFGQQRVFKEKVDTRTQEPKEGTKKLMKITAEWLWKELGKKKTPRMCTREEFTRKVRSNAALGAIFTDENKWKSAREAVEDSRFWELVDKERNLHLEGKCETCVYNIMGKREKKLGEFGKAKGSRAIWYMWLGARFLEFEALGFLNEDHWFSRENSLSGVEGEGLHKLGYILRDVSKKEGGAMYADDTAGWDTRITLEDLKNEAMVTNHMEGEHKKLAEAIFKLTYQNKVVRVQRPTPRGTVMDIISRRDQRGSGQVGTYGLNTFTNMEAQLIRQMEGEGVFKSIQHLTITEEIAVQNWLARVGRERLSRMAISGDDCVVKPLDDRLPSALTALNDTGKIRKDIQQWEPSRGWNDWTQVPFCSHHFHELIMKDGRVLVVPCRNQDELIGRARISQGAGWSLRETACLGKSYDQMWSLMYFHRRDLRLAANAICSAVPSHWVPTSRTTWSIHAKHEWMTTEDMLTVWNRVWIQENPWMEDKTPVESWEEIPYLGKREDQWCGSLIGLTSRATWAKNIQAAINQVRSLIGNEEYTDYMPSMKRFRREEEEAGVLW

CCN1C(=O)NC(=O)/C(=C\c2cn(CC(=O)N3CCCC3)c3ccccc23)C1=O
AC50 [1]: 107 µM (active)

O=Nc1c2[nH]c3ccccc3[n+]([O-])c-2c2ccccc12
CC50 [2]: 34.2 µM (active) | EC50 [3]: 15.7 µM (active) | EC50 [4]: 8.47 µM (active) | EC50 [5]: 12.5 µM (inconclusive) | CC50 [6]: > 40 µM (active) | IC50 [7]: > 119 µM (inactive) | IC50 [8]: > 119 µM (inactive)

Clc1ccccc1-c1nnc(-c2cccs2)o1
IC50 [9]: > 67.5 µM (inactive) | IC50 [10]: > 67.5 µM (inactive)

Cc1cc(C)c(C)c(S(=O)(=O)N2CCN(C)CC2)c1C
IC50 [9]: > 67.5 µM (inactive) | IC50 [10]: > 67.5 µM (inactive)

O=C(OCCN1C(=O)c2cccc3c(N4CCOCC4)ccc(c23)C1=O)c1cccc(Cl)c1
AC50 [1]: 19.2 µM (active)

N#Cc1sc2nc(-c3cccs3)cc(-c3ccc(Cl)cc3)c2c1N
AC50 [11]: 3.98 µM (inconclusive) | IC50 [12]: > 49.7 µM (inactive) | IC50 [13]: 4.74 µM (active) | AC50 [14]: 1.41 µM (inconclusive)

CCS(=O)(=O)N1CCN(c2ccc([N+](=O)[O-])c(NC(C)c3ccccc3)c2)CC1 (configuration not stated)
IC50 [15]: > 80 µM (inactive)

Cc1cc(O)c(C(C)C)cc1N=Cc1ccc(N(C)C)cc1
IC50 [15]: 23.9 µM (inactive) | IC50 [16]: > 100 µM (active)

COc1ccccc1NC(=O)CCC(=O)N/N=C(/C)c1ccc(C)cc1
IC50 [9]: 46.9 µM (inactive) | IC50 [10]: > 67.5 µM (inactive)

Cc1cc(C(=O)N/N=C/c2ccc([N+](=O)[O-])o2)c(C)o1
IC50 [7]: > 119 µM (inactive) | CC50 [17]: 38.9 µM (active) | IC50 [8]: > 119 µM (inactive) | AC50 [18]: 4.79 µM (active) | IC50 [19]: 1.89 µM (active)
